pIC50: −log10 of the molar value.
Molecular target: CA II (Homo sapiens, UniProt P00918)
Test: esterase assay, p-nitrophenyl acetate hydrolysis
Format: biochemical

pIC50, < 5.70:
O=C1NS(=O)(=O)c2cc(-n3cc(CO[C@@H]4O[C@H](CO)[C@@H](O)[C@H](O)[C@H]4O)nn3)ccc21 [1a, saccharin-glycoconjugate 1a]
O=C1NS(=O)(=O)c2cc(-n3cc(CO[C@@H]4O[C@H](CO)[C@H](O)[C@H](O)[C@H]4O)nn3)ccc21 [1b, saccharin-glycoconjugate 1b]
O=C1NS(=O)(=O)c2cc(-n3cc(CCO[C@@H]4O[C@H](CO)[C@H](O)[C@H](O)[C@H]4O)nn3)ccc21 [1c, saccharin-glycoconjugate 1c]

From PMC6492551 (Carbohydrate research, 2019)
